Measured values taken from patent US7732420B2, “Combinations of transfection lipids exhibiting increased transfection efficiencies” (Northwestern University, priority 2003, dated 2010).

What was measured:
[1] = test system: human umbilical artery endothelial cells (HUAECs); test: Transfection of HUAEC with lipoplexes, β-galactosidase expression; assay type: cell-based; details: lipid used individually
Description: The cells were seeded in 96-well plates at 24 hours before transfection at densities to give about 80% confluence at the time of transfection. Chloroform solutions of EDLPC with EDOPC and EDLPC with EDMPC were mixed at the different ratios and then chloroform was removed under N2 stream and vacuum. The lipid mixtures were hydrated in HBSS at 1 mg/ml to form liposomes. Liposomes and plasmid DNA were diluted in OptiMEM to 80 μg/ml for lipid and to 20 μg/ml for DNA, and liposomes were pipetted into an equal volume of plasmid DNA solution at a 4:1 weight ratio and mixed gently. The resultant DNA (plasmid with β-galactosidase marker gene)—lipid complexes were incubated at room temperature for 15 min and then added to the cells that were either in medium lacking serum (black bars) or medium containing 5% serum (gray bars). The lipoplexes had 35% (lipoid) excess positive over negative (DNA) charge. Cells were assayed for β-galactosidase expression 24 hours after transfection. Data represent the mean±S.D. of a representative experiment performed in quadruplicate. ˜20,000 fluorescence units corresponded approximately to 0.1 milliunit of β-galactosidase.
Cells were treated with DNA-lipid complex for 2 h in the absence (“no serum”) or presence of serum (“serum”) and then washed with HBSS and supplemented with fresh culture medium. Data represent the mean±S.D. of a representative experiment performed in quadruplicate.
Cells were treated with DNA-lipid complex for 2 h in the absence (“no serum”) or presence of 5% normal serum (“normal serum”) or 5% delipidated serum (“delipidated serum”) and then washed with HBSS and supplemented with fresh regular culture medium. Data represent the mean±S.D. of a representative experiment performed in quadruplicate.
Conditions were identical with those described in FIG. 1 except that different lipoid mixtures were used. Ditetradecyldimethyammonium (di C 14 substituted quaternary ammonium) was mixed with dioctadecylammonium (di C 18 quaternary ammonium).

HUAECs = test: Intracellular distribution of fluorescent lipid and oligonucleotide of lipoplexes; assay type: cell-based, human
Description: Lipoplexes were labeled with a fluoresce in derivative of a double-stranded dodecameric oligonucleotide. Cells were incubated with the resulting lipoplexes in the presence of serum for 2 h and imaged under a fluorescence microscope at 2 h later after being washed with HBSS.
In order to determine if this pattern of fusion is also observed within cells (e.g., the mixture is more prone to fuse with endosomal membranes facilitating escape of DNA from endosomal degradation and nuclei entrance) the intracellular distribution of fluorescent lipid and oligonucleotide in EDOPC and EDLPC/EDOPC (60/40) lipoplexes was investigated. […] Lipoplexes were labeled with a fluorescein derivative of a double-stranded dodecameric oligonucleotide. Cells were incubated with the resulting lipoplexes in the presence of serum for 2 h and imaged under a fluorescence microscope after being washed in HBSS. […] Similar images were obtained with fluorescent plasmid DNA, although the fluorescence of the nucleus was less intense.

| SMILES | transfection activity of the individual lipid [1] | intracellular distribution of lipid (HUAECs; fluorescent lipid in lipoplexes) | intracellular distribution of oligonucleotide (HUAECs; fluorescent oligonucleotide in lipoplexes, in the presence of serum) |
| --- | --- | --- | --- |
| CCCCCCCCCCCCCC(=O)OC[C@H](COP(=O)(OCC)OCC[N+](C)(C)C)OC(=O)CCCCCCCCCCCCC (some centres unmarked) [EDMPC, 1,2-dimyristol-sn-glycero-3-ethylphosphocholine] | quite weak transfection reagents | – | – |
| CCCCCCCCCCCC(=O)OC[C@H](COP(=O)(OCC)OCC[N+](C)(C)C)OC(=O)CCCCCCCCCCC (some centres unmarked) [EDLPC, 1,2-dilauroyl-sn-glycero-3-ethylphosphocholine] | quite weak transfection reagents | – | – |
| CCCCCCCC/C=C\CCCCCCCC(=O)OC[C@@H](COP(=O)(OCC)OCC[N+](C)(C)C)OC(=O)CCCCCCC/C=C\CCCCCCCC (some centres unmarked) [EDOPC, 1,2-dioleoyl-sn-glycero-3-ethylphosphocholine] | quite weak transfection reagents | remained in the cytoplasm for at least 20 hours | remained in the cytoplasm for at least 20 hours |
